Experimental data from publication PMC5665883, “Antithrombotic properties of JJ1, a potent and novel thrombin inhibitor” (Scientific Reports, 2017).
Marks after values point to notes of the source that are not given here.

Legend:
Factor IXa = target: T1, Factor IXa (Homo sapiens, UniProt P00740); assay: Chromogenic substrate assay, Ki (Dixon); type: biochemical
T1 construct: Factor IXa
Protocol: (§1) Chromogenic substrate assays were performed using a Labsystems IEMS (Cergy Pontoise, France) microtiter plate reader. K i values were calculated according to the method of Dixon[65]. In each assay, the compound was tested at a minimum of seven concentrations, in duplicate, to obtain an inhibition curve. The following general procedures were adopted for each assay. In a 96-well microtiter plate, 25 μL of inhibitor solution or buffer was added to 50 μL of substrate. The enzyme solution (25 μL) was added just before the plate was placed in the microtiter plate reader for 1 h at 37 °C. The hydrolysis of the substrate yields p-nitroaniline, which was continuously monitored spectrophotometrically at 405 nm. The maximal initial reaction rates were calculated and expressed as millioptical density per minute.

Factor XIa = target: T2, Factor XIa (Homo sapiens, UniProt P03951); assay: Chromogenic substrate assay, Ki (Dixon); type: biochemical
T2 construct: Factor XIa
Protocol: as §1

Plasmin = target: T3, Plasmin (Homo sapiens, UniProt P00747); assay: Chromogenic substrate assay, Ki (Dixon); type: biochemical
T3 construct: thrombin versus trypsin, factor Xa, elastase, plasmin, protein Ca, streptokinase, tPA, and urokinase

Protein Ca = target: T4, Protein Ca (Homo sapiens, UniProt P04070); assay: Chromogenic substrate assay, Ki (Dixon); type: biochemical
T4 construct: thrombin versus trypsin, factor Xa, elastase, plasmin, protein Ca, streptokinase, tPA, and urokinase

thrombin = target: T5, thrombin (Homo sapiens, UniProt P00734); assay: Enzyme-based assay of purchased virtual screening molecules, single dose; type: biochemical; conditions: single concentration of 50 μM
T5 construct: purchased Haematologic Technologies (Essex Junction, VT)
Text: Prior to the high-throughput virtual screening, we selected the best crystal structure for docking with DOCK 3.6[17] using the selected inhibitors and their physicochemically matched but topologically different decoys. […] Because the earlier enrichment of true positives is more important for high throughput SBVS, we used the value of LogAUC as a metric, selecting 2CF9-H[18] as the best structure. […] Besides, the enrichment at 1% (EF1) was 37.1. The values of LogAUC and EF1 were approximately two-fold higher than the averages (26.1 for LogAUC and 17.1 for EF1) (Figs 1 and S1). Some structures had higher AUC values than that of 2CF9-H, but the value of LogAUC was the highest for 2CF9-H (Fig. S1). The optimization necessitated the calculations of more than 2 million protein and ligand pairs. The high speed of DOCK 3.6 and the in-house Linux cluster system consisting of 128 cores efficiently managed the calculations in three days. Of the candidate molecules having the lowest scores in the high-throughput SBVS, we chose the molecules with desirable geometries and physicochemical properties by a simple manual and visual inspection. […] It is known that the scoring function of virtual screening itself is insufficient to capture such an abnormality. Table S1 and Fig. S2 list the top 40 molecules, which were selected through high-throughput SBVS; we purchased these molecules to measure enzymatic inhibitory activity.

[1] = Ex vivo aPTT clotting time; type: in vivo, C57BL/6 mice; conditions: mice, i.v., 1 h after administration
Protocol: (§2) The aPTT and PT were determined using a Thrombotimer (Behnk Elektronik, Norderstedt, Germany) in accordance with the manufacturer’s instructions and as previously described. Briefly, citrated normal human plasma (90 μL) was mixed with 10 μL JJ1 and incubated for 1 min at 37 °C. Subsequently, the aPTT assay reagent (100 μL) was added, the plasma sample was incubated for an additional 1 min at 37 °C, 20 mM CaCl2 (100 μL) was added, and the clotting times were recorded. For the PT assays, citrated normal human plasma (90 μL) was mixed with 10 μL JJ1 stock solution and was incubated for 1 min at 37 °C. The PT assay reagent (200 μL), which had been pre-incubated for 10 min at 37 °C, was subsequently added and the clotting time was recorded. The PT results were expressed in seconds and as International Normalized Ratios (INR): INR = (PT sample/PT control)^ISI, where ISI = international sensitivity index. The aPTT results were also expressed in seconds. All experimental protocols (KNUH 2012-01-010) were approved by the Institutional Review Board of Kyungpook National University Hospitals (Daegu, Republic of Korea).
(§3) Male C57BL/6 mice were fasted overnight. Each compound was dissolved in 0.5% DMSO and administered by i.v. injection. One hour after administration, arterial blood samples (0.1 mL) were collected in 3.8% sodium citrate (1:10, v/v) for the ex vivo aPTT and PT determination. The clotting times were determined as described above.

Ex vivo PT clotting time = type: in vivo, C57BL/6 mice; conditions: mice, i.v.; for PT: 1 h after administration
Protocol: as §2, §3

HUVECs = assay: Production of thrombin on the surfaces of HUVECs; type: cell-based, human; conditions: HUVECs with FVa, FXa, prothrombin
Protocol: Thrombin production by HUVECs was quantified as previously described[63],[68]. Briefly, HUVECs were pre-incubated in 300 μL of a solution containing JJ1 in 50 mM Tris-HCl buffer, 100 pM FVa, and 1 nM FXa for 10 min, followed by the addition of prothrombin to a final concentration of 1 μM. After 10 min, duplicate samples (10 μL each) were transferred into a 96-well plate containing 40 μL 0.5 M EDTA in TBS per well to terminate the prothrombin activation. Activated prothrombin was determined by the measurement of the rate of hydrolysis of S-2238 (a thrombin substrate) at 405 nm. Standard curves were prepared with known amounts of purified thrombin.

[2] = test system: thrombin-catalyzed fibrin polymerization in human plasma; assay: Thrombin-catalyzed fibrin polymerization; type: biochemical; conditions: absorbance at 360 nm
Protocol: Thrombin-catalyzed polymerization was determined every 6 s for 20 min by monitoring the turbidity of the solution at 360 nm at ambient temperature by using a spectrophotometer (TECAN, Männedorf, Switzerland). Control plasma and plasma incubated with JJ1 were diluted three-fold in […] and clotted with thrombin (final concentration: 0.5 U/mL). The maximum polymerization rate (Vmax, ΔmOD/min) from each absorbance curve was recorded.

T4 sequence (P04070 212-450 limits assumed): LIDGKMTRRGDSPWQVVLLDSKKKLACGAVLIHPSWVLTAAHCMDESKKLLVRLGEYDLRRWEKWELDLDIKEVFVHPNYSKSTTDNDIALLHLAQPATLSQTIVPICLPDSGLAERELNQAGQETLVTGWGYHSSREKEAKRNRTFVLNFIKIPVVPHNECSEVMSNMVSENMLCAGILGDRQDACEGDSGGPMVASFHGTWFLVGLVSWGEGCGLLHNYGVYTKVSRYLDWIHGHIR
T4 sequence (P04070 43-197 limits assumed): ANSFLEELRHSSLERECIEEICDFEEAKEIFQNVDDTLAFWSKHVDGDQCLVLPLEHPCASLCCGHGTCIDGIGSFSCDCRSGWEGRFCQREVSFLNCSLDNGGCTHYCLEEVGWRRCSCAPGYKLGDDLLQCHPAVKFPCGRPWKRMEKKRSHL
T2 sequence (P03951 388-625 limits assumed): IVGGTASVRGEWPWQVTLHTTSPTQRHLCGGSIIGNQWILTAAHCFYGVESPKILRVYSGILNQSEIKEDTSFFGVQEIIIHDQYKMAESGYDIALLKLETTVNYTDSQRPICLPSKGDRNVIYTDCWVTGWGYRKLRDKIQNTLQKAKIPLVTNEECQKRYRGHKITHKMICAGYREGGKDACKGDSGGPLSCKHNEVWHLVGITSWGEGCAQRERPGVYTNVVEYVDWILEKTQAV
T2 sequence (P03951 19-387 limits assumed): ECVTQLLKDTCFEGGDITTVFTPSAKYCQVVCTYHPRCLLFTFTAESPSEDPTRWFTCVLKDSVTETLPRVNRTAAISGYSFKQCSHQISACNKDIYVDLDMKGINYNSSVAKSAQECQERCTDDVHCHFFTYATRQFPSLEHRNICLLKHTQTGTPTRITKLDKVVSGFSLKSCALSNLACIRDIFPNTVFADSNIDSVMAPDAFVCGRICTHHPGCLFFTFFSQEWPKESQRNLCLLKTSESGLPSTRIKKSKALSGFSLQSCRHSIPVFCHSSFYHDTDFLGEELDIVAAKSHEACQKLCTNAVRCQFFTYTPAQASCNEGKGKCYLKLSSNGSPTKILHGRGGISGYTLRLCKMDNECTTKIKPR
T3 sequence (P00747 581-810 limits assumed): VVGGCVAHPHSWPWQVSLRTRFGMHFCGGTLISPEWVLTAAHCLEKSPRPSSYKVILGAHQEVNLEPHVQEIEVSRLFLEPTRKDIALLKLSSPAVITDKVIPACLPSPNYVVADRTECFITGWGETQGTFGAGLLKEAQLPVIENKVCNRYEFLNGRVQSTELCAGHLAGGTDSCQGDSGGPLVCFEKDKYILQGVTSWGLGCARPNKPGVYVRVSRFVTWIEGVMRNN
T3 sequence (P00747 97-580 limits assumed): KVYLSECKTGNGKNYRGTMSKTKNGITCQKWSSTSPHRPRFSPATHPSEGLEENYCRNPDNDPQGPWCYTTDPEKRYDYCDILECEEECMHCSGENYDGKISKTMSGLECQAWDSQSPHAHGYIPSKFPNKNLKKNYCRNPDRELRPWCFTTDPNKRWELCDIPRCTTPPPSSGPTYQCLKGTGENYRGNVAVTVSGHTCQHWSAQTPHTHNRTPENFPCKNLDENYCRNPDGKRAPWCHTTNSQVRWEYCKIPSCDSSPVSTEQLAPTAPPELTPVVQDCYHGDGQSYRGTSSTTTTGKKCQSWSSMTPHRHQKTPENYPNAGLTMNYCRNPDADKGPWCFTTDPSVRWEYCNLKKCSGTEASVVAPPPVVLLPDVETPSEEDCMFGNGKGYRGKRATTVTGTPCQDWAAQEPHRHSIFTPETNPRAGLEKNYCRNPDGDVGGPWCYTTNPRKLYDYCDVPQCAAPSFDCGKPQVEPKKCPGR
T1 sequence (P00740 227-461 limits assumed): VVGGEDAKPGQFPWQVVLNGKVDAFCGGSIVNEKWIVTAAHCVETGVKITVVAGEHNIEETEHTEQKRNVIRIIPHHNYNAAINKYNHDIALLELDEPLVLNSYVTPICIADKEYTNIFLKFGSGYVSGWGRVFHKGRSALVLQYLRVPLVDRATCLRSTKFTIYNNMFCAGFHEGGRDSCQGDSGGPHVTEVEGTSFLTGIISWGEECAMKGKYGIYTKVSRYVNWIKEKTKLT
T1 sequence (P00740 47-191 limits assumed): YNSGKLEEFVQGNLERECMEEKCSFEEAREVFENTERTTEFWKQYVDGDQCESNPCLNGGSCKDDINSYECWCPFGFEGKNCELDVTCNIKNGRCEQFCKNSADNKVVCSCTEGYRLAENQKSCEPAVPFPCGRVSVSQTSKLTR

c1ccc2c(NC3CCCC3)nc(Nc3ccncc3)nc2c1 [JJ1]
Ki (Factor IXa; Factor IXa): > 250 µM | Selectivity ratio (Factor IXa; K i Factor IXa/K i α-thrombin): >10,000 | Ki (Factor XIa; Factor XIa): > 250 µM | Selectivity ratio (Factor XIa; K i Factor XIa/K i α-thrombin): >10,000 | Selectivity ratio (Plasmin; K i Plasmin/K i α-thrombin): >10,000 | Ki (Plasmin; Plasmin): > 250 µM | Selectivity ratio (Protein Ca; K i Protein Ca/K i α-thrombin): >10,000 | Ki (Protein Ca; Protein Ca): > 250 µM | Degree of inhibition in the enzyme-based assay (thrombin): inhibitory effects | aPTT ([1]; 0.31 μg/mouse): 31.9 ± 0.6 s | aPTT ([1]; 0.61 μg/mouse): 40.1 ± 1.1 s | aPTT ([1]; 1.23 μg/mouse): 49.4 ± 1.5 s | aPTT ([1]; 3.06 μg/mouse): 55.8 ± 1.2 s | PT (INR) (Ex vivo PT clotting time; 0.31 μg/mouse): 1.08 INR | PT (Ex vivo PT clotting time; 0.31 μg/mouse): 12.4 ± 0.5 s | PT (INR) (Ex vivo PT clotting time; 0.61 μg/mouse): 2.37 INR | PT (Ex vivo PT clotting time; 0.61 μg/mouse): 17.2 ± 1.4 s | PT (INR) (Ex vivo PT clotting time; 1.23 μg/mouse): 4.42* INR | PT (Ex vivo PT clotting time; 1.23 μg/mouse): 22.3 ± 0.6 s | PT (INR) (Ex vivo PT clotting time; 3.06 μg/mouse): 6.88* INR | PT (Ex vivo PT clotting time; 3.06 μg/mouse): 26.8 ± 0.4 s | Production of thrombin (HUVECs): inhibited the production of thrombin in a dose-dependent manner | Maximal rate of fibrin polymerization [2]: significantly decreased the maximal rate of fibrin polymerization
